Assay results from patent US20160158200A1, “Combinations of Hepatitis C Virus Inhibitors” (priority 2013, published 2016).

Tested on: HCV genotype-1a variant with glutamine 30 changed to glutamate in the NS5A protein
Assay type: cell-based
Settings: test compound titrated with BMS-790052 fixed at 200 nM; genotype 1a Q30E replicon
Method in brief: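 Synergy was assessed by combining several fixed amounts of an NS5A-targeting compound with a titration of the second compound of interest.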

SMILES | Fold-Synergistic 1a (Q30E) [fold]
CC(C)(C)OC(=O)NC1CCCCC1C(=O)N[C@H](c1nc(-c2ccc(-c3ccc(-c4c[nH]c([C@@H](NC(=O)C5CCCCC5NC(=O)OC(C)(C)C)C(C)(C)C)n4)cc3)cc2)c[nH]1)C(C)(C)C (single isomer, unassigned) [Compound W-23B] | >100
CC(C)(C)OC(=O)N1CCCCC1(C)C(=O)N[C@H](c1nc(-c2ccc(-c3ccc(-c4c[nH]c([C@@H](NC(=O)C5(C)CCCCN5C(=O)OC(C)(C)C)C(C)(C)C)n4)cc3)cc2)c[nH]1)C(C)(C)C (single isomer, unassigned) [Compound L-46c] | >100
CC1(C)CCN(C(=O)c2cccc3ccccc23)C1c1nc(-c2ccc(-c3ccc(-c4c[nH]c(C5N(C(=O)c6cccc7ccccc67)CCC5(C)C)n4)cc3)cc2)c[nH]1 (centres unmarked) [Compound W-225] | <10
CC(C)(NCC(F)(F)F)C(=O)NC(c1nc(-c2ccc(-c3ccc(-c4c[nH]c(C(NC(=O)C(C)(C)NCC(F)(F)F)C(C)(C)C)n4)cc3)cc2)c[nH]1)C(C)(C)C [Compound L-50] | >100
CCOC(=O)C1(C(=O)N[C@H](c2nc(-c3ccc(-c4ccc(-c5c[nH]c([C@@H](NC(=O)C6(C(=O)OCC)CCCCC6)C(C)(C)C)n5)cc4)cc3)c[nH]2)C(C)(C)C)CCCCC1 [Compound N-146] | >100
CC(O)(CC1CC1)C(=O)N[C@H](c1nc(-c2ccc(-c3ccc(-c4cnc([C@@H](NC(=O)C(C)(O)CC5CC5)C(C)(C)C)[nH]4)cc3)cc2)c[nH]1)C(C)(C)C (some centres unmarked) [Compound B-162] | >100
COCC(C)(C)C(=O)N[C@H](c1nc(-c2ccc(-c3ccc(-c4c[nH]c([C@@H](NC(=O)C(C)(C)COC)C(C)(C)C)n4)cc3)cc2)c[nH]1)C(C)(C)C [Compound P-12] | >100
Cc1ccccc1C(=O)N[C@H](c1ncc(-c2ccc(-c3ccc(-c4cnc([C@@H](NC(=O)c5ccccc5C)C(C)C)[nH]4)cc3)cc2)[nH]1)C(C)C [Compound S-70] | >100
CC(C)[C@H](NC(=O)C(=O)C1(C)CCCC1)c1ncc(-c2ccc(-c3ccc(-c4cnc([C@@H](NC(=O)C(=O)C5(C)CCCC5)C(C)C)[nH]4)cc3)cc2)[nH]1 [Compound P-114] | >100
CC(C)[C@H](N[S+]([O-])C(C)(C)C)c1ncc(-c2ccc(-c3ccc(-c4cnc([C@@H](N[S+]([O-])C(C)(C)C)C(C)C)[nH]4)cc3)cc2)[nH]1 (some centres unmarked) [Compound Y-61] | <10
CC(C)(C)C(=O)N[C@H](c1ncc(-c2ccc3cc(-c4ccc5nc([C@@H](NC(=O)C(C)(C)C)C(C)(C)C)[nH]c5c4)ccc3c2)[nH]1)C(C)(C)C [Compound B54] | >100
CC(C)(OCCF)C(=O)N[C@H](c1nc(-c2ccc(-c3ccc(-c4c[nH]c([C@@H](NC(=O)C(C)(C)OCCF)C(C)(C)C)n4)cc3)cc2)c[nH]1)C(C)(C)C [Compound Y-3] | >100
CCCOC(=O)N1CCC[C@H]1c1ncc(-c2ccc(-c3ccc(-c4cnc([C@@H]5CCCN5C(=O)OCCC)[nH]4)cc3)cc2)[nH]1 [Compound S-218] | >10
CC(C)(C)[C@H](NC(=O)C(=O)N1CCOCC1)c1nc(-c2ccc(-c3ccc(-c4c[nH]c([C@@H](NC(=O)C(=O)N5CCOCC5)C(C)(C)C)n4)cc3)cc2)c[nH]1 [Compound W-25] | >100
CC(C)(C)C(NC(=O)C1COC(=O)N1)c1nc(-c2ccc(-c3ccc(-c4c[nH]c(C(NC(=O)C5COC(=O)N5)C(C)(C)C)n4)cc3)cc2)c[nH]1.O=C(O)C(F)(F)F.O=C(O)C(F)(F)F [Compound L-9] | >10
CC(CO)(CF)C(=O)NC(c1nc(-c2ccc(-c3ccc(-c4c[nH]c(C(NC(=O)C(C)(CO)CF)C(C)(C)C)n4)cc3)cc2)c[nH]1)C(C)(C)C (mixture of isomers) [Compound N-138] | >100
CC(C)(C)C(NC(=O)C1CC12CCC(F)(F)CC2)c1nc(-c2ccc(-c3ccc(-c4c[nH]c(C(NC(=O)C5CC56CCC(F)(F)CC6)C(C)(C)C)n4)cc3)cc2)c[nH]1 (mixture of isomers) [Compound Y-70] | >100
CC(C)(C)C(NC(=O)CC1CCCO1)c1nc(-c2ccc(-c3ccc(-c4c[nH]c(C(NC(=O)CC5CCCO5)C(C)(C)C)n4)cc3)cc2)c[nH]1.O=C(O)C(F)(F)F.O=C(O)C(F)(F)F (mixture of isomers) [Compound L-70] | >100
CN(C)C(=N[C@H](c1ncc(-c2ccc(-c3ccc(-c4cnc([C@@H](NC(=O)C(C)(C)C5CCCC5)C(C)(C)C)[nH]4)cc3)cc2)[nH]1)C(C)(C)C)N(C)C [Compound B83] | >100

SMILES | Fold-Synergistic 1a (Q30E) [fold]
CC(C)(C)[C@H](NC(=O)C1CCC(F)(F)CC1)c1nc2ccc(-c3ccc(-c4ccc5nc([C@@H](NC(=O)C6CCC(F)(F)CC6)C(C)(C)C)[nH]c5c4)cc3)cc2[nH]1 [Compound B32] | >100
CC(C)(C)C(NC(=O)C1CCCO1)c1nc(-c2ccc(-c3ccc(-c4c[nH]c(C(NC(=O)C5CCCO5)C(C)(C)C)n4)cc3)cc2)c[nH]1 [Compound L-65] | >100
O=C(Oc1ccccc1)N1CCC[C@H]1c1ncc(-c2ccc(-c3ccc(-c4cnc([C@@H]5CCCN5C(=O)Oc5ccccc5)[nH]4)cc3)cc2)[nH]1 [Compound S-223] | >100
CC(O)(CF)C(=O)N[C@H](c1nc(-c2ccc(-c3ccc(-c4c[nH]c([C@@H](NC(=O)C(C)(O)CF)C(C)(C)C)n4)cc3)cc2)c[nH]1)C(C)(C)C (single isomer, unassigned) [Compound N-139A] | >100
CC(C)[C@H](NC(=O)C1CCC(F)(F)CC1)c1ncc(-c2ccc(-c3ccc(-c4cnc([C@@H](NC(=O)C5CCC(F)(F)CC5)C(C)C)[nH]4)cc3)cc2)[nH]1 [Compound P-79] | >100
CC(C)CC(=O)N[C@@H](c1nc(-c2ccc(-c3ccc(-c4c[nH]c([C@H](NC(=O)CC(C)C)C(C)C)n4)cc3)cc2)c[nH]1)C(C)C [Compound P-54.1] | >100
CC(C)(C)C(NC(=O)C1(O)CCCOC1)c1nc(-c2ccc(-c3ccc(-c4c[nH]c(C(NC(=O)C5(O)CCCOC5)C(C)(C)C)n4)cc3)cc2)c[nH]1 (mixture of isomers) [Compound Y-102] | >100
CC(C)N(CC(F)(F)F)C(=O)C(=O)N1CCC(C)(C)C1c1nc(-c2ccc(-c3ccc(-c4c[nH]c(C5N(C(=O)C(=O)N(CC(F)(F)F)C(C)C)CCC5(C)C)n4)cc3)cc2)c[nH]1 (centres unmarked) [Compound W-236] | >100
CC(C)[C@H](NC(=O)c1ccc(Cl)cc1F)c1ncc(-c2ccc(-c3ccc(-c4cnc([C@@H](NC(=O)c5ccc(Cl)cc5F)C(C)C)[nH]4)cc3)cc2)[nH]1 [Compound S-93] | >100
CN(C(=O)OCCF)C(C)(C)C(=O)N[C@H](c1nc(-c2ccc(-c3ccc(-c4c[nH]c([C@@H](NC(=O)C(C)(C)N(C)C(=O)OCCF)C(C)(C)C)n4)cc3)cc2)c[nH]1)C(C)(C)C [Compound L-20] | >100
CC(C)[C@H](NC(=O)CC1CCOCC1)c1ncc(-c2ccc(-c3ccc(-c4cnc([C@@H](NC(=O)CC5CCOCC5)C(C)C)[nH]4)cc3)cc2)[nH]1 [Compound P-58] | >10
CC1(C(=O)N[C@H](c2nc(-c3ccc(-c4ccc(-c5c[nH]c([C@@H](NC(=O)C6(C)CCCCC6O)C(C)(C)C)n5)cc4)cc3)c[nH]2)C(C)(C)C)CCCCC1O (single isomer, unassigned) [Compound Y-106] | >100
CC(C)N(C(=O)C(=O)N[C@H](c1nc(-c2ccc(-c3ccc(-c4c[nH]c([C@@H](NC(=O)C(=O)N(C(C)C)C5CC5)C(C)(C)C)n4)cc3)cc2)c[nH]1)C(C)(C)C)C1CC1 [Compound W-49] | >100
CC(C)(C)[C@H](NC(=O)C12CCC(CC1)N2)c1nc(-c2ccc(-c3ccc(-c4c[nH]c([C@@H](NC(=O)C56CCC(CC5)N6)C(C)(C)C)n4)cc3)cc2)c[nH]1.Cl.Cl.Cl.Cl [Compound W-92] | >10
COC(CO)(CC(C)C)C(=O)N[C@H](c1nc(-c2ccc(-c3ccc(-c4c[nH]c([C@@H](NC(=O)C(CO)(CC(C)C)OC)C(C)(C)C)n4)cc3)cc2)c[nH]1)C(C)(C)C (single isomer, unassigned) [Compound N-160A] | >100
CC(C)[C@H](NC(=O)c1cccc(C#N)c1)c1ncc(-c2ccc(-c3ccc(-c4cnc([C@@H](NC(=O)c5cccc(C#N)c5)C(C)C)[nH]4)cc3)cc2)[nH]1 [Compound S-72] | >100
CC1(C(O)C(C)(C)C(=O)N[C@H](c2nc(-c3ccc(-c4ccc(-c5c[nH]c([C@@H](NC(=O)C(C)(C)C(O)C6(C)CC6)C(C)(C)C)n5)cc4)cc3)c[nH]2)C(C)(C)C)CC1 (single isomer, unassigned) [Compound N-151A] | >100
CC1CN(C(=O)C(=O)N[C@H](c2nc(-c3ccc(-c4ccc(-c5c[nH]c([C@@H](NC(=O)C(=O)N6CC(C)OC(C)C6)C(C)(C)C)n5)cc4)cc3)c[nH]2)C(C)(C)C)CC(C)O1 (single isomer, unassigned) [Compound W-40B] | >100
CC(C)[C@H](NC(=O)[C@@]1(C)CCC(F)(F)CO1)c1nc(-c2ccc(-c3ccc(-c4c[nH]c([C@@H](NC(=O)[C@@]5(C)CCC(F)(F)CO5)C(C)C)n4)c(F)c3)cc2)c[nH]1 [Compound N-132] | >100
